Results taken from patent US10835542B2, “9-aminomethyl minocycline compounds and use thereof in treating community-acquired bacterial pneumonia (CABP)” (Paratek Pharmaceuticals, Inc., priority 2016, dated 2020).

Legend:
[1] = Lung tissue versus plasma concentrations in mice; conditions: mouse
[2] = Food effect on plasma PK of a single 300 mg oral dose, healthy volunteers (4-period crossover); type: in vivo, human
[3] = Phase 1 multiple oral dose (300, 450, 600 mg) study: plasma PK, healthy adult subjects; conditions: for exposure (dose-normalized AUC0-24) as % of that predicted if perfectly dose-proportional: 300 mg to 600 mg; for AUC(0-t): human, in vivo, po
[4] = Phase 1 multiple oral dose study: safety and tolerability; conditions: for Most frequent TEAEs: ALT increased, n (%) / Most frequent TEAEs: Diarrhea, n (%) / Most frequent TEAEs: Dizziness, n (%) / Most frequent TEAEs: Nausea, n (%) / Most frequent TEAEs: Vomiting, n (%) / TEAEs leading to early discontinuation of study drug: ALT increased, n (%) / TEAEs leading to early discontinuation of study drug: All, n (%) / TEAEs leading to early discontinuation of study drug: Lipase increased, n (%) / TEAEs leading to early discontinuation of study drug: Nausea, n (%) / TEAEs leading to early discontinuation of study drug: Syncope, n (%) / TEAEs leading to early discontinuation of study drug: Vomiting, n (%) / n (%) of subjects with Any TEAE / n (%) of subjects with Treatment-related TEAE: Safety Population

CN(C)c1cc(CNCC(C)(C)C)c(O)c2c1C[C@H]1C[C@H]3[C@H](N(C)C)C(O)=C(C(N)=O)C(=O)[C@@]3(O)C(O)=C1C2=O [Compound 1, 9-[(2,2-dimethyl-propylamino)-methyl]-minocycline]
Kp [1]: 3.7 to 4.4 | between-subject variability in systemic exposure (CV) for Cmax and AUC ([2]; Treatment D): 42.6-44.4% | between-subject variability in systemic exposure (CV) for Cmax and AUC ([2]; Treatments A, B and C): 22.4-29.2% | exposure (dose-normalized AUC0-24) as % of that predicted if perfectly dose-proportional ([3]; Day 1): 76% | exposure (dose-normalized AUC0-24) as % of that predicted if perfectly dose-proportional ([3]; Day 5): 88% | Cmax/Dose Geometric LS Means ([3]; Day 1, 300 mg): 2.09 ng/mL/mg | Cmax/Dose Geometric LS Means ([3]; Day 1, 450 mg): 1.81 ng/mL/mg | Cmax/Dose Geometric LS Means ([3]; Day 1, 600 mg): 1.54 ng/mL/mg | Cmax/Dose Geometric LS Means ([3]; Day 5, 300 mg): 2.62 ng/mL/mg | Cmax/Dose Geometric LS Means ([3]; Day 5, 450 mg): 2.32 ng/mL/mg | Cmax/Dose Geometric LS Means ([3]; Day 5, 600 mg): 2.11 ng/mL/mg | systemic exposure on Day 5 higher than on Day 1 ([3]; all tested dose levels): ~50% | AUC(0-t) ([3]; 300 mg): 9270 ng·h/mL | AUC(0-t) ([3]; 450 mg): 8980 ng·h/mL | frequency of treatment-related TEAEs ([4]; 300 mg): 15.4% | median change in alanine aminotransferase (ALT) between baseline and Day 5 ([4]; 300 mg): −2.0 IU/L | Most frequent TEAEs: ALT increased, n (%) ([4]; 300 mg (n = 26)): 0 n (%) | Most frequent TEAEs: Diarrhea, n (%) ([4]; 300 mg (n = 26)): 0 n (%) | Most frequent TEAEs: Dizziness, n (%) ([4]; 300 mg (n = 26)): 2 (7.7) n (%) | Most frequent TEAEs: Nausea, n (%) ([4]; 300 mg (n = 26)): 2 (7.7) n (%) | Most frequent TEAEs: Vomiting, n (%) ([4]; 300 mg (n = 26)): 2 (7.7) n (%) | TEAEs leading to early discontinuation of study drug: ALT increased, n (%) ([4]; 300 mg (n = 26)): 0 n (%) | TEAEs leading to early discontinuation of study drug: All, n (%) ([4]; 300 mg (n = 26)): 1 (3.8) n (%) | TEAEs leading to early discontinuation of study drug: Lipase increased, n (%) ([4]; 300 mg (n = 26)): 0 n (%) | TEAEs leading to early discontinuation of study drug: Nausea, n (%) ([4]; 300 mg (n = 26)): 1 (3.8) n (%) | TEAEs leading to early discontinuation of study drug: Syncope, n (%) ([4]; 300 mg (n = 26)): 0 n (%) | TEAEs leading to early discontinuation of study drug: Vomiting, n (%) ([4]; 300 mg (n = 26)): 1 (3.8) n (%) | n (%) of subjects with Any TEAE ([4]; 300 mg (n = 26)): 5 (19.2) n (%) | n (%) of subjects with Treatment-related TEAE ([4]; 300 mg (n = 26)): 4 (15.4) n (%) | frequency of treatment-related TEAEs ([4]; 450 mg): 8.3% | median change in alanine aminotransferase (ALT) between baseline and Day 5 ([4]; 450 mg): 5.0 IU/L | Most frequent TEAEs: ALT increased, n (%) ([4]; 450 mg (n = 24)): 1 (4.2) n (%) | Most frequent TEAEs: Diarrhea, n (%) ([4]; 450 mg (n = 24)): 0 n (%) | Most frequent TEAEs: Dizziness, n (%) ([4]; 450 mg (n = 24)): 0 n (%) | Most frequent TEAEs: Nausea, n (%) ([4]; 450 mg (n = 24)): 1 (4.2) n (%) | Most frequent TEAEs: Vomiting, n (%) ([4]; 450 mg (n = 24)): 0 n (%) | TEAEs leading to early discontinuation of study drug: ALT increased, n (%) ([4]; 450 mg (n = 24)): 1 (4.2) n (%) | TEAEs leading to early discontinuation of study drug: All, n (%) ([4]; 450 mg (n = 24)): 1 (4.2) n (%) | TEAEs leading to early discontinuation of study drug: Lipase increased, n (%) ([4]; 450 mg (n = 24)): 0 n (%) | TEAEs leading to early discontinuation of study drug: Nausea, n (%) ([4]; 450 mg (n = 24)): 0 n (%) | TEAEs leading to early discontinuation of study drug: Syncope, n (%) ([4]; 450 mg (n = 24)): 0 n (%) | TEAEs leading to early discontinuation of study drug: Vomiting, n (%) ([4]; 450 mg (n = 24)): 0 n (%) | n (%) of subjects with Any TEAE ([4]; 450 mg (n = 24)): 3 (12.5) n (%) | n (%) of subjects with Treatment-related TEAE ([4]; 450 mg (n = 24)): 2 (8.3) n (%) | frequency of treatment-related TEAEs ([4]; 600 mg): 25.0% | median change in alanine aminotransferase (ALT) between baseline and Day 5 ([4]; 600 mg): 19.5 IU/L | reports of diarrhea ([4]; 600 mg): 2 | Most frequent TEAEs: ALT increased, n (%) ([4]; 600 mg (n = 24)): 1 (4.2) n (%) | Most frequent TEAEs: Diarrhea, n (%) ([4]; 600 mg (n = 24)): 2 (8.3) n (%) | Most frequent TEAEs: Dizziness, n (%) ([4]; 600 mg (n = 24)): 1 (4.2) n (%) | Most frequent TEAEs: Nausea, n (%) ([4]; 600 mg (n = 24)): 4 (16.7) n (%) | Most frequent TEAEs: Vomiting, n (%) ([4]; 600 mg (n = 24)): 1 (4.2) n (%) | TEAEs leading to early discontinuation of study drug: ALT increased, n (%) ([4]; 600 mg (n = 24)): 0 n (%) | TEAEs leading to early discontinuation of study drug: All, n (%) ([4]; 600 mg (n = 24)): 1 (4.2) n (%) | TEAEs leading to early discontinuation of study drug: Lipase increased, n (%) ([4]; 600 mg (n = 24)): 1 (4.2) n (%) | TEAEs leading to early discontinuation of study drug: Nausea, n (%) ([4]; 600 mg (n = 24)): 0 n (%) | TEAEs leading to early discontinuation of study drug: Syncope, n (%) ([4]; 600 mg (n = 24)): 0 n (%) | TEAEs leading to early discontinuation of study drug: Vomiting, n (%) ([4]; 600 mg (n = 24)): 0 n (%) | n (%) of subjects with Any TEAE ([4]; 600 mg (n = 24)): 6 (25.0) n (%) | n (%) of subjects with Treatment-related TEAE ([4]; 600 mg (n = 24)): 6 (25.0) n (%) | TEAE nausea ([4]; 600 mg group): 16.7% | tolerability of multiple doses ([4]; 300, 450 and 600 mg once daily for 5 days): generally well-tolerated | TEAE nausea ([4]; 300 and 450 mg dose groups): ≤ 7.7% | Most frequent TEAEs: ALT increased, n (%) ([4]; Omadacycline Overall (n = 26)): 2 (7.7) n (%) | Most frequent TEAEs: Diarrhea, n (%) ([4]; Omadacycline Overall (n = 26)): 2 (7.7) n (%) | Most frequent TEAEs: Dizziness, n (%) ([4]; Omadacycline Overall (n = 26)): 3 (11.5) n (%) | Most frequent TEAEs: Nausea, n (%) ([4]; Omadacycline Overall (n = 26)): 6 (23.1) n (%) | Most frequent TEAEs: Vomiting, n (%) ([4]; Omadacycline Overall (n = 26)): 3 (11.5) n (%) | TEAEs leading to early discontinuation of study drug: ALT increased, n (%) ([4]; Omadacycline Overall (n = 26)): 1 (3.8) n (%) | TEAEs leading to early discontinuation of study drug: All, n (%) ([4]; Omadacycline Overall (n = 26)): 3 (11.5) n (%) | TEAEs leading to early discontinuation of study drug: Lipase increased, n (%) ([4]; Omadacycline Overall (n = 26)): 1 (3.8) n (%) | TEAEs leading to early discontinuation of study drug: Nausea, n (%) ([4]; Omadacycline Overall (n = 26)): 1 (3.8) n (%) | TEAEs leading to early discontinuation of study drug: Syncope, n (%) ([4]; Omadacycline Overall (n = 26)): 0 n (%)
